From US11098040B2, “Compounds and methods of use” (Ferro Therapeutics, Inc., priority 2018, dated 2021)

Experiments:
Format in all cases: cell-based
MDA-MB-435S = assay: Cell viability assay (CellTiter Glo), melanoma cell line MDA-MB-435S; conditions: Homo sapiens, 96 hours
Description: (§1) Cell viability assay was performed to assess the potency of the compounds in human cancer cell lines KP4 (pancreatic ductal adenocarcinoma), MiaPaCa-2 (pancreatic carcinoma), AsPC-1 (pancreatic adenocarcinoma, ascites), 143B (osteosarcoma), and SJSA-1 (osteosarcoma). Selected compounds were also assayed in a human breast epithelial cell line MCF-10A, a nontumorigenic cell line as a control to assess differential activity. Cells at a density of 500-5,000 cells/well were seeded in 96-well plates and incubated at 37° C. overnight. A series of 9 different concentrations of compound stocks (500×) were created by 3-fold serial dilution in DMSO. These compounds were further diluted in culture media and then added to cells so that the final DMSO concentration was equal to 0.25% or less. After 96 hours of incubation, 50 μL of CellTiter Glo reagent (Promega) was added to each well and luminescence was measured after 10 minutes using EnVision (PerkinElmer). Compounds titrated from top concentration of up to 30 μM. The select compounds were tested initially from 30 μM as the top concentration in duplicates (range of 4.6 nM-30 μM). […] Luminescence from cells treated with DMSO alone was set as Max and % of inhibition was calculated as follows: Inhibition %=(Max-Sample value)/Max*100. Data was analyzed using XL-fit software (ID Business Solutions Ltd.). IC50, relative IC50, or % of top inhibition was calculated.
(§2) A group of selected analogs were further profiled in cell viability assays described above in multiple additional cancer cell lines, including lung cancer, melanoma, hepatocarcinoma, pancreatic cancer, leukemia, lymphoma, ovarian cancer, breast cancer, colon cancer, and sarcoma cell lines. Initial cell seeding numbers were adjusted for each cell line. Typically, 500-5000 cells/well for adherent cells and 5000-10000/well for suspension cells were seeded in 96-well plates.

Raji = assay: Cell viability assay (CellTiter Glo), lymphoma cell line Raji; conditions: Homo sapiens, 96 hours
Description: as §1, §2

PANC1 = assay: Cell viability assay (CellTiter Glo), pancreatic cell line PANC1; conditions: Homo sapiens, PANC-1, 96 hours
Description: as §1, §2
The results of the assay in the pancreatic cell lines are given in Table 15a for PANC1, Table 15b for MiaPaCa-2, and Table 15c for AsPC-1.

Huh7 = assay: Cell viability assay (CellTiter Glo), hepatocellular carcinoma Huh7; conditions: Homo sapiens, Huh-7, 96 hours
Description: as §1, §2

H2228 = assay: Cell viability assay (CellTiter Glo), lung cancer cell line H2228; conditions: Homo sapiens, NCI-H2228; lung cancer cell line, 96 hours, CellTiter Glo; read-out: IC50 H2228
Description: as §1, §2

SK-OV-3 = assay: Cell viability assay (CellTiter Glo), ovarian cancer cell line SK-OV-3; conditions: Homo sapiens, 96 hours
Description: as §1, §2

MCF-10A = assay: Cell viability assay (CellTiter Glo), non-tumorigenic breast epithelial cell line MCF-10A; conditions: Homo sapiens, 96 hours
Method in brief: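 MCF-10A cells (500-5,000/well) treated 96 h at 37° C with 9-point 3-fold dilutions from up to 30 μM, ≤0.25% DMSO, in duplicate. Viability by CellTiter Glo luminescence; % inhibition versus DMSO-only wells gave IC50, relative IC50 or % top inhibition. Paclitaxel positive control.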

H1299 = assay: Cell viability assay (CellTiter Glo), lung cancer cell line H1299; conditions: Homo sapiens, NCI-H1299, 96 hours
Description: as §1, §2

HT29 = assay: Cell viability assay (CellTiter Glo), colon cancer cell line HT29; conditions: Homo sapiens, HT-29, 96 hours
Description: as §1, §2

HCC1954 = assay: Cell viability assay (CellTiter Glo), breast cancer cell line HCC1954; conditions: Homo sapiens, 96 hours
Description: as §1, §2

REC-1 = assay: Cell viability assay (CellTiter Glo), lymphoma cell line REC-1; conditions: Homo sapiens, Rec1, 96 hours
Description: as §1, §2

SW480 = assay: Cell viability assay (CellTiter Glo), colon cancer cell line SW480; conditions: Homo sapiens, 96 hours
Description: as §1, §2

MV-4-1 = assay: Cell viability assay (CellTiter Glo), leukemia cell line MV-4-1; conditions: 96 hours
Description: as §1, §2
(§3) The results of the assay in the leukemia cell lines are given in Table 16a for MV-4-1 and Table 16b for HL-60 and Kasumi-1.

HT-1080 luc2 = assay: Cell viability assay (CellTiter Glo), fibrosarcoma HT-1080 luc2; conditions: Homo sapiens, fibrosarcoma expressing a luciferase gene, 96 hours, CellTiter Glo, read-out: IC50 HT-1080 luc2
Description: as §1, §2
The results of the assay in sarcoma cell lines are given in Table 21a for HT-1080 luc2 (fibrosarcoma expressing a luciferase gene), Table 21b for 143B (osteosarcoma), and Table 21c for SJSA-1 (osteosarcoma).

SJSA-1 = assay: Cell viability assay (CellTiter Glo), osteosarcoma SJSA-1; conditions: Homo sapiens, 96 hours
Method in brief: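 Cells seeded at 500-5,000/well overnight, then 96 h exposure to 9-point 3-fold dilutions from up to 30 μM (4.6 nM-30 μM), final DMSO ≤0.25%. Viability by CellTiter Glo luminescence; inhibition relative to DMSO-only cells, yielding IC50, relative IC50 or % top inhibition.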

Kasumi-1 = assay: Cell viability assay (CellTiter Glo), leukemia cell line Kasumi-1; conditions: Homo sapiens, 96 hours
Description: as §1, §2, §3

HL-60 = assay: Cell viability assay (CellTiter Glo), leukemia cell line HL-60; conditions: Homo sapiens, 96 hours
Description: as §1, §2, §3

Row | IC50 (MDA-MB-435S) [nM] | IC50 (Raji) [nM] | IC50 (PANC1) [nM] | IC50 (Huh7) [nM] | IC50 (H2228) [nM] | IC50 (SK-OV-3) [nM] | IC50 (H1299) [nM] | IC50 (HT29) [nM] | IC50 (HCC1954) [nM] | IC50 (REC-1) [nM] | IC50 (SW480) [nM] | IC50 (MV-4-1) [nM] | IC50 (HT-1080 luc2) [nM] | IC50 (SJSA-1) [nM] | IC50 (Kasumi-1) [nM] | IC50 (HL-60) [nM] | Structure (SMILES) | IC50 (MCF-10A) [nM]
1 | 47 | 151 | > 1000 | 120 | 112 | 230 | 41 | 338 | 333 | 516 | 10500 | 524 | 38 |  |  |  | COC(=O)[C@H]1Cc2c([nH]c3ccccc23)[C@H](c2ccc(NCC3CC3)cc2)N1C(=O)CCl [Example 83] | 3790
2 |  |  |  |  |  |  |  |  |  |  |  |  |  | 115 | 145 | 120 | C[C@H]1Cc2c([nH]c3ccc(F)cc23)[C@H](c2ccc(N3CCOCC3)cc2)N1C(=O)CCl [Example 114] | 
